Assay results from US11026940B2, “Compositions for the mobilization, homing, expansion and differentiation of stem cells and methods of using the same” (Ampio Pharmaceuticals, Inc., priority 2013, dated 2021).

Assays:
CXCL12 = CXCL12 transcription by MSC in hanging drop (3D) culture, RTPCR; type: cell-based, human; details: Actin normalization, 4 days
Procedure: (§1) This effect is more pronounced if the cells are grown directly on plastic in a 2D conformation. In this example, MSCs are cultured in hanging drop cultures in the presence of Ampion™ and then mRNA is evaluated by RTPCR.
(§2) Materials: • Passage 5 Bone marrow derived human mesenchymal stem cells (HUXMA-01001, Cyagen Biosciences, Sunnyvale Calif.) • Mesenchymal Stem Cell Chondrogenic Differentiation medium (GUXMX-90041, Cyagen Biosciences, Sunnyvale Calif.) • TheraPEAK MSCGM chemically defined Stem cell medium (190632 Lonza) • Lonza MSGM (contains serum) • 10 mM Cobalt chloride in saline, sterile filtered (Sigma) • Saline or 0.9% Sodium chloride for injection ZR Flush (Excelsior Medical, Neptune N.J.) • 0.2 μM syringe filters • Hepes buffered saline, Trypsin/EDTA, Trypsin neutralizing solution (Lonza reagent pack) • 182 cm^2 tissue culture flasks • pipettes and sterile tips • Tissue culture hood, humidified CO2 incubator, water or bead bath • 10 cm^2 petri dishes • Qiagen RNeasy plus spin columns (Qiagen 74134) • Qiagen RT^2 qPCR primer pairs for CXCR4, CXCL12, Collagen 2A1, MMP14, MMP13, Aggrecan, IGA4, GAPDH, and Actin B • Roche Sybr green I master mix and Invitrogen Superscript VILO master mix. • Roche 480 lightcycler Cell Expansion: • Passage 5 HUXMA cells were removed from liquid nitrogen storage and expanded in 182 cm^2 flasks containing 40 mls TheraPEAK MSCGM until 80-90% confluence. • Trypsinize cells using standard protocol and proceed to the next step. […] RNA Isolations and Analysis: • After 4 days, remove the plates from the incubator. • Wash spheroids from the lid with 5 mls of the warm PBS in the bottom of each plate and transfer to 15 ml conical centrifuge tubes. • Spin cells at 1000 RPM for 5 minutes and aspirate the solution. • To each tube, add 350 μl Qiagen RNeasy plus lysis buffer (with 2ME). • Transfer solution to Qiashredder columns and spin at 14,000 rpm for 2 minutes. • Proceed with RNeasy plus protocol following manufacturers recommendations. • Elute RNA from columns using 30 μl RNase free water. cDNA Synthesis and Real Time PCR: • First strand synthesis of cDNA from all samples was then performed following the recommended 20 μl total volume protocol using 10 μl isolated RNA. • All cDNA reactions were then diluted with 30 μl nuclease free water. • Real time PCR was then performed using 5 μl diluted cDNA, Roche Syber green master mix, and Qiagen RT^2 qPCR primer pairs (20 μl total volume). • Relative gene expression determined by delta deta Ct method. […]

CXCR4 = CXCR4 transcription by MSC in hanging drop (3D) culture, RTPCR; type: cell-based, human; details: Actin normalization, 4 days
Procedure: as §1, §2

[1] = test system: Bone marrow derived human mesenchymal stem cells; assay: Migration (invasion) assay using pretreated stem cells, transwell, calcein AM fluorescence; type: cell-based; details: for mean FU: cells pretreated 72 hours, migration 24 hours; for FU 1: replicate 1; for FU 2: replicate 2; for FU 3: replicate 3
Procedure: This experiment will be designed to establish if migration of MSC is altered as well.
• Passage 5 Bone marrow derived human mesenchymal stem cells (HUXMA-01001, Cyagen Biosciences, Sunnyvale Calif.) • TheraPEAK MSCGM chemically defined Stem cell medium (190632 Lonza) • Lonza MSGM, Gibco RPMI, Gibco Defined fetal bovine serum. • 10 mM Cobalt chloride in saline, sterile filtered (Sigma) • Saline or 0.9% Sodium chloride for injection ZR Flush (Excelsior Medical, Neptune N.J.) • 0.2 μM syringe filters • Hepes buffered saline, Trypsin/EDTA, Trypsin neutralizing solution (Lonza reagent pack) • 25 and 175 cm^2 tissue culture flasks • pipettes and sterile tips • Tissue culture hood, humidified CO2 incubator, water or bead bath • 8.0 um Thincert tissue culture inserts and 24 well tissue culture plates (Greiner) • 50 μg Calcein AM vials (BD Biosciences) • DMSO (Sigma) Cell Expansion: • Passage 5 HUXMA cells were removed from liquid nitrogen storage and expanded in 175 cm^2 flasks containing 40 mls TheraPEAK MSCGM until 80-90% confluence. • Trypsinize cells using standard protocol and proceed to the next step. Treatment of Cells: • Prepare the following working dilutions in saline for injection from the stocks listed above. • Saline • 800 uM Cobalt Chloride in saline • Neat Ampion • Warm dilutions and Lonza MSCGM to 37° C. in bead bath. • Prepare a cell suspension of HUXMA stem cells in warmed MSCGM medium. • Count and then bring up 250,000 from the cell suspension in 4 mls warmed MSCGM. • Add the diluted cell solution to a 25 cm^2 tissue culture flasks. • Add 1 ml of the appropriate working dilution to the flask. • Incubate at 37° C. and 5% CO2 for 72 hours. Invasion Assay: • Remove the cells from the flask with trypsin and place in 600 μl RPMI+0.5% FBS. • Add 200 μl of the resulting cell suspension to the upper chamber of thinserts (3 inserts per treatment group) resting in a 24 well tissue culture plate. • Add 600 μl RPMI+0.5% FBS to the bottom chamber of the transwell system. • Add 66 μl of one the following solutions to the bottom chamber for each treatment group. • 550 ng/ml SDF (final 50 ng/ml) • 110 ng/ml TGF beta3 (final 10 ng/ml) • Serum (final 10%) • Incubate the plate for 24 hours at 37° C. and 5% CO2. Labeling and Cell Detection. • Remove two calcein AM vials and add 20 μl DMSO. • Transfer the contents of both vials to 12.5 ml RPMI containing 0.2% BSA. • Place 450 μl of the calcein AM solution (8 μM) in each well of a 24 well tissue culture plate. • Transfer the inserts from above to the wells containing calcein AM and incubate 45 minutes at 37° C. and 5% CO2. • After loading the cells with calcein AM, transfer the inserts to 24 well tissue culture plate wells containing 450 μl trypsin EDTA and incubate for another 10 minutes. • Discard inserts then add 450 μl trypsin neutralizing solution to each well. • Transfer 250 μl of the resulting solution to a 96 well black, flat bottom plate well (each reaction in triplicate). • Read fluorescence at 485 nm excitation and 530 nm emission.

## [Cl][Co][Cl] [Cobalt, Cobalt chloride]
CXCL12
  2-ΔΔCp vs saline, CXCL12: 0.005
  regulation, CXCL12: −219.79
  ΔΔCp vs saline, CXCL12: 7.78
CXCL12; hanging drop culture
  ΔCp, CXCL12: 14.91
CXCR4
  2-^ΔΔCp vs saline, CXCR4: 8.369
  regulation, CXCR4: 8.37
  ΔΔCp vs saline, CXCR4: −3.065
CXCR4; hanging drop culture
  ΔCp, CXCR4: 11.19
[1]; chemoattractant 10% FBS
  % increase (migration vs saline): 29.1%
  mean FU: 343.27 FU
  FU 1: 346.49 FU
  FU 2: 329.28 FU
  FU 3: 354.03 FU
[1]; chemoattractant SDF-1
  % increase (migration vs saline): 1.2%
  FU 1: 215.24 FU
  FU 2: 267.07 FU
  FU 3: 285.27 FU
[1]; chemoattractant SDF-1 (final 50 ng/ml)
  mean FU: 255.86 FU
[1]; chemoattractant TGF B3
  % increase (migration vs saline): −6.8%
  FU 1: 274.97 FU
  FU 2: 288.44 FU
  FU 3: 296.9 FU
[1]; chemoattractant TGF B3 (final 10 ng/ml)
  mean FU: 286.77 FU
